Legend:
[1] = test system: recombinant human CFTR carrying the premature stop codon (PTC) mutation G542X; assay: CFTR-PTC mutant translation readthrough, Nanoluc tagged CFTR luminescence (G542X cell line); format: cell-based; conditions: in combination with G418, G542X cell line; for CFTR G542X ACTIVITY Fold 10 μM G-418: fold over 10 μM G-418; for EC50: 16HBE cells
Description: (§1) 16HBE human bronchial epithelial cells (stably over-expressing recombinant human CFTR carrying the premature stop codon (PTC) mutation G542X or R1162X along with a Nanoluc tag incorporated into the CFTR channel within extracellular loop 4 in G542X cell line or C-terminus end in the R1162X cell line were seeded at 0.01×10^6 cells/well and grown in Minimal Essential Medium (MEM) as monolayers in 384 well plates and incubated at 37° C. with 5% CO2. Media was changed every other day until day of experiment. Agents to be evaluated were made up in separate 384 well, polypropylene plates at a 2X the final desired test concentration. Test agent 10-point concentration response curves were constructed using the Labcyte Echo 555 acoustic dispenser. Test agents were typically tested at a max final test concentrations of 50 μM with sequential 2-fold lower concentrations below this in the absence or presence of a fixed 10 μM concentration of the aminoglycoside G418 made up in MEM growth media (reduced Serum Media+HEPES Buffer+2.4 g/L Sodium Bicarbonate+L-Glutamine containing CFTR corrector VX-809 (3 μM)). Treatment with 10 μM G418 alone produced approximately 10% of the response observed with a maximally effective concentration of G418 (typically 125-250 μM). Test agent effects in presence of 10 μM G418 were compared to control wells on the plate containing a maximally effective concentration of G418 (typically 125-250 μM) made up in the same media. 25 ul of test agents/control solutions were transferred from the compound plate to the cell plate, which already contained 25 ul/well of cell plating media, using an Integra Viaflo 384. Cell plates were incubated with the compounds for 48 hours, at which time they were processed using Nanoluc luminescence Kit (Promega Nano-Glo Live Cell Assay System) to measure CFTR-PTC mutant translation readthrough. Luminescence was measured as follows. Cell plates were removed from the incubator and allowed to equilibrate to room temperature for 20 minutes. Media was removed from all wells and the plates were blotted to remove excess remaining volume. Nano-Glo Live Cell Substrate was diluted 1:20 in the appropriate amount of Nano-Glo LCS Dilution Buffer to accommodate the number of cell plates being tested. The substrate/dilution buffer mix was then diluted 1:3 with MEM media to make the appropriate volume for the number of plates being tested. The substrate/dilution buffer/OptiMEM mix was added across the Nanoluc testing cell plates and the plates were read for luminescence signal immediately. Test agent effects on CFTR translation readthrough was determined by normalizing any observed increase in luminescence induced by 48 hours pretreatment with test compound to the magnitude of luminescence increase produced by pretreatment with a maximally effective concentration of the reference readthrough enhancing agent G418 (125-250 μM).

[2] = test system: recombinant human CFTR carrying the premature stop codon (PTC) mutation R1162X; assay: CFTR-PTC mutant translation readthrough, Nanoluc tagged CFTR luminescence (R1162X cell line); format: cell-based; conditions: for CFTR R1162X ACTIVITY Fold 10 μM G-418: fold over 10 μM G-418, in combination with G418; for EC50: in combination with G418, 16HBE cells, read-out: CFTR R1162X ACTIVITY EC50
Description: as §1

| SMILES | CFTR G542X ACTIVITY Fold 10 μM G-418 [1] | EC50 [1] | CFTR R1162X ACTIVITY Fold 10 μM G-418 [2] | EC50 [2] |
| --- | --- | --- | --- | --- |
| NC[C@@H]1CN(c2ncc(OCc3c(Cl)cccc3Cl)cn2)CCO1 | B′ (B′ = ≥5X to <10X) | < 1000 nM | A′ (A′ = ≥10X) | 1000 to 10000 nM |
| CC(=O)NCC1CN(c2ncc(OCc3c(Cl)cccc3Cl)cn2)CCO1 (stereo not drawn) | A′ (A′ = ≥10X) | < 1000 nM | A′ (A′ = ≥10X) | 1000 to 10000 nM |
| OCc1cn(-c2ccc(CCc3c(Cl)cccc3Cl)cn2)cn1 [[1-[5-[2-(2,6-dichlorophenyl)ethyl]-2-pyridyl]imidazol-4-yl]methanol] | B′ (B′ = ≥5X to <10X) | 1000 to 10000 nM | ′ | > 10000 nM |
| O=C(O)C1CN(c2ncc(OCc3c(Cl)cccc3C(F)(F)F)cn2)CCO1 (stereo not drawn) [4-[5-[[2-chloro-6-(trifluoromethyl)phenyl]methoxy]pyrimidin-] | C′ (C′ = <5X) | 1000 to 10000 nM |  | < 1000 nM |
| Cc1cccc(C(F)(F)F)c1COc1ccc2nc(CO)cn2c1 | A′ (A′ = ≥10X) | > 10000 nM | A′ (A′ = ≥10X) | > 10000 nM |
| O=C1OC(CO)CN1c1ncc(CCc2c(Cl)cccc2Cl)cn1 (stereo not drawn) |  | > 10000 nM |  | > 10000 nM |
| CC(C)C1NC(=O)N(c2ccc(OCc3c(Cl)cccc3C(F)(F)F)cc2)C1=O (stereo not drawn) | A′ (A′ = ≥10X) | < 1000 nM | B′ (B′ = ≥5X to <10X) | 1000 to 10000 nM |
| Cc1cccc(C(F)(F)F)c1COc1cnc(-n2cc(CO)nn2)nc1 | A′ (A′ = ≥10X) | 1000 to 10000 nM | A′ (A′ = ≥10X) | 1000 to 10000 nM |
| OCc1cc(-c2ccc(OCc3c(Cl)cccc3Cl)cn2)no1 [[3-[5-[(2,6-dichlorophenyl)methoxy]-2-pyridyl]isoxazol-5-yl]methanol] | A′ (A′ = ≥10X) | < 1000 nM | A′ (A′ = ≥10X) | 1000 to 10000 nM |
| O=C1OC(CO)CN1c1ccc(CCc2c(Cl)cccc2Cl)cn1 (stereo not drawn) [3-[5-[2-(2,6-dichlorophenyl)ethyl]-2-pyridyl]-5-(hydroxymethyl)oxazolidin-2-one] | B′ (B′ = ≥5X to <10X) | 1000 to 10000 nM | A′ (A′ = ≥10X) | > 10000 nM |
| NC(=O)C1CCCN(c2ncc(OCc3c(Cl)cccc3Cl)cn2)C1 (stereo not drawn) [1-[5-[(2,6-dichlorophenyl)methoxy]pyrimidin-2-yl]piperidine-3-carboxamide] | A′ (A′ = ≥10X) | < 1000 nM | A′ (A′ = ≥10X) | < 1000 nM |
| Cc1cccc(C(F)(F)F)c1COc1cnc(N2CCC(O)C(C)(C)C2)nc1 (stereo not drawn) | A′ (A′ = ≥10X) | < 1000 nM | A′ (A′ = ≥10X) | < 1000 nM |
| O=C1OC(CO)CN1c1ccc(OCc2c(Cl)cccc2Cl)cc1 (stereo not drawn) [3-[4-[(2,6-dichlorophenyl)methoxy]phenyl]-5-(hydroxymethyl)oxazolidin-2-one] | B′ (B′ = ≥5X to <10X) | 1000 to 10000 nM | B′ (B′ = ≥5X to <10X) | 1000 to 10000 nM |
| CNC(=O)N1CCN(c2ncc(OCc3c(C)cccc3C(F)(F)F)cn2)CC1 | A′ (A′ = ≥10X) | < 1000 nM | A′ (A′ = ≥10X) | < 1000 nM |
| OC[C@@H]1CN(c2ncc(OCc3c(Cl)cccc3Cl)cn2)CC[C@@H]1O (racemic) | A′ (A′ = ≥10X) | < 1000 nM | A′ (A′ = ≥10X) | 1000 to 10000 nM |
| Cc1cccc(C(C)(F)F)c1COc1ccc(N2CC(CO)NC2=O)nc1 (stereo not drawn) | A′ (A′ = ≥10X) | 1000 to 10000 nM | A′ (A′ = ≥10X) | 1000 to 10000 nM |

| SMILES | CFTR G542X ACTIVITY Fold 10 μM G-418 [1] | EC50 [1] | CFTR R1162X ACTIVITY Fold 10 μM G-418 [2] | EC50 [2] |
| --- | --- | --- | --- | --- |
| OCc1ccn(-c2ncc(OCc3c(Cl)cccc3Cl)cn2)n1 [[1-[5-[(2,6-dichlorophenyl)methoxy]pyrimidin-2-yl]pyrazol-3-yl]methanol] | A′ (A′ = ≥10X) | < 1000 nM | A′ (A′ = ≥10X) | 1000 to 10000 nM |
| Cc1cccc(C(F)(F)F)c1COc1cnc(N2CCO[C@@H](CO)C2)nc1 | A′ (A′ = ≥10X) | < 1000 nM | A′ (A′ = ≥10X) | < 1000 nM |
| O=C1OC(CO)CN1c1ccc(OCc2cc(Cl)cc(Cl)c2)cc1 (stereo not drawn) [3-[4-[(3,5-dichlorophenyl)methoxy]phenyl]-5-(hydroxymethyl)oxazolidin-2-one] | B′ (B′ = ≥5X to <10X) | 1000 to 10000 nM | B′ (B′ = ≥5X to <10X) | > 10000 nM |
| COC(=O)c1ncn(-c2ccc(OCc3c(C)cccc3C(F)(F)F)cc2)n1 | A′ (A′ = ≥10X) | < 1000 nM | A′ (A′ = ≥10X) | 1000 to 10000 nM |
| NC(=O)N1C[C@@H]2CN(c3ncc(OCc4c(Cl)cccc4Cl)cn3)C[C@@H]2C1 | A′ (A′ = ≥10X) | 1000 to 10000 nM | B′ (B′ = ≥5X to <10X) | 1000 to 10000 nM |
| Cc1cccc(C(F)(F)F)c1COc1cnc(N2CCO[C@@H](CN)C2)nc1 | A′ (A′ = ≥10X) | < 1000 nM | A′ (A′ = ≥10X) | < 1000 nM |
| O=C(O)C1CCCN(c2ncc(OCc3c(Cl)cccc3C(F)(F)F)cn2)C1 (stereo not drawn) [1-[5-[[2-chloro-6-(trifluoromethyl)phenyl]methoxy]pyrimidin-] | C′ (C′ = <5X) | 1000 to 10000 nM |  | < 1000 nM |
| OCc1cn(-c2ncc(OCc3c(Cl)cccc3Cl)cn2)nn1 [[1-[5-[(2,6-dichlorophenyl)methoxy]pyrimidin-2-yl]triazol-4-yl]methanol] | A′ (A′ = ≥10X) | 1000 to 10000 nM | A′ (A′ = ≥10X) | 1000 to 10000 nM |
| CCc1cccc(C(F)(F)F)c1COc1cnc(-n2cnc(CO)c2)nc1 | A′ (A′ = ≥10X) | < 1000 nM | A′ (A′ = ≥10X) | < 1000 nM |
| NCc1cn(-c2ccc(OCc3c(Cl)cccc3Cl)cc2)cn1 [Example 227, [1-[4-[(2,6-dichlorophenyl)methoxy]phenyl]imidazol-4-yl]methanamine] | B′ (B′ = ≥5X to <10X) | 1000 to 10000 nM | B′ (B′ = ≥5X to <10X) | 1000 to 10000 nM |
| OCC(O)c1ccc(OCc2c(Cl)cccc2Cl)cn1 (stereo not drawn) [1-[5-[(2,6-dichlorophenyl)methoxy]-2-pyridyl]ethane-1,2-diol] | A′ (A′ = ≥10X) | > 10000 nM | B′ (B′ = ≥5X to <10X) | 1000 to 10000 nM |
| O=CNCC1CCCN(c2ncc(OCc3c(Cl)cccc3Cl)cn2)C1 (stereo not drawn) | B′ (B′ = ≥5X to <10X) | 1000 to 10000 nM | B′ (B′ = ≥5X to <10X) | 1000 to 10000 nM |
| OCc1ncn(-c2ccc(OCc3c(Cl)cccc3OC(F)(F)F)cc2)n1 | A′ (A′ = ≥10X) | 1000 to 10000 nM | A′ (A′ = ≥10X) | 1000 to 10000 nM |
| CN(CCCCO)c1ncc(OCc2c(Cl)cccc2Cl)cn1 [4-[[5-[(2,6-dichlorophenyl)methoxy]pyrimidin-2-yl]-methyl-amino]butan-1-ol] | A′ (A′ = ≥10X) | < 1000 nM | A′ (A′ = ≥10X) | < 1000 nM |
| COc1ccc(CN2C(=O)CN(c3ccc(OCc4c(C)cccc4C(F)(F)F)cc3)C2=O)cc1 | B′ (B′ = ≥5X to <10X) | 1000 to 10000 nM | B′ (B′ = ≥5X to <10X) | 1000 to 10000 nM |

From US20250228865A1, “COMPOUNDS FOR ENHANCING READ THROUGH OF GENES CONTAINING PREMATURE TERMINATION CODONS AND METHODS FOR MAKING AND USING THE SAME” (Sanofi US Services Inc., priority 2022, published 2025)
